Patent US11213527B2, “Inhibitory effect of low molecular weight compound on cancer and fibrosis” (NATIONAL UNIVERSITY CORPORATION TOTTORI UNIVERSITY, priority 2014, dated 2022)

Assays:
[1] = tested on: colon cancer cells (DLD-1, HCT 116, colo 205); assay: Anti-tumor effect on colon cancer cells (TetraColor ONE); type: cell-based; settings: 48 hours
Method: Colon cancer cells (DLD-1, HCT 116, colo 205) were cultured in a DMEM on a 10-cm cell culture dish (TPP Techno Plastic Products AG, Trasadingen, Switzerland) at 5% CO2, 37° C., and a humidity of 100%. The cells at 70-90% confluency were split and washed with PBS (−). Next, 300 μL of Trypsin/EDTA was added to 2 mL of PBS (−) and the cells were incubated with this solution at 37° C. for 5 min to detach the cells. Then, 5 mL of DMEM was used to recover the cells. The recovered cells were centrifuged at 1000 rpm for 3 min to remove a supernatant. Then the cells were suspended in DMEM at 1:4 and subcultured.
First, 5×10^5 colon cancer cells (DLD-1, HCT 116, or colo 205) were seeded on a 96-well plate (TPP). Forty-eight hours after the low-molecular-weight compound treatment, 100 μL of 10% TetraColor ONE (SEIKAGAKU CORPORATION, Tokyo, Japan) was added and the mixture was then incubated at 37° C. After that, absorbance (at a measurement wavelength of 450 nm/a control wavelength of 600 nm) was measured by using a 96-well microplate reader (TECAN, Zurich, Switzerland).

Wnt/β-catenin signal = settings: induces differentiation of the mesenchymal stem cell into hepatocytes; cited from earlier work
[2] = tested on: CD44-negative and CD44-positive HuH7 cells; assay: Sphere formation capability of sorted HuH7 cells; type: cell-based, human; settings: 50 μM IC-2, 10 μM PN-3-13; one week
Method: First, HuH7 cells were collected. Next, the cells were stained with an anti-human CD44 monoclonal antibody (Cell Signaling Technology Inc., Danvers, Mass., USA)), and then with an Alexa 488-labeled goat anti-mouse IgG antibody. After that, a Beckman Coulter-MoFlo XDP (Beckman Coulter Inc., Fullerton, Calif., USA) was used to sort the cells into a CD44-negative fraction and a CD44-positive fraction. The sorted cells were seeded at 5×10^4 cells/well on a 24-well ultra-low-attachment multiwell plate (Corning, N.Y., USA). Subsequently, the cells were cultured at 37° C. in the presence of 5% CO2 in a DMEM/Nutrient Mixture F-12 Ham (Sigma-Aldrich, St. Louis, Mo., USA) containing 20 ng/mL of recombinant human epidermal growth factor, 20 ng/mL of human basic fibroblast growth factor, 1×B27, and L-glutamine. Twenty-four hours after the plating, 1% DSMO, 50 μM IC-2, and 10 μM PN-3-13 were each added to the corresponding well and the cells were further cultured. One week after the chemical treatment, the number of spheres (with a size of 100 μm or larger) in 15 visual fields/well was counted.

[3] = tested on: fibrosis markers TGFβ, α-SMA, and COL1A1; assay: Real-time PCR of fibrosis markers in LX-2 cells; type: cell-based, human; settings: compound+TGFβ, with increasing concentration
Method: A human liver stellate cell line (LX-2 cells) was maintained and cultured in a DMEM containing 10% FBS. The cells used for experiments were suspended in a DMEM containing 1% FBS and plated. The cell density was at about 2.0×10^5 cell/cm^2.
A real-time PCR was carried out to examine an inhibitory effect of each low-molecular-weight compound on fibrosis. The real-time PCR was conducted under conditions indicated in FIG. 55 and the following sections 9.4.1 to 9.4.2. Note that TGFβ, α-SMA, and COL1A1 are fibrosis markers.
A pre-Mix was prepared by using MilliQ water: 5.2 μL/sample, MgCl2: 0.8 μl/sample, 10 μM primer F: 0.5 μl, 10 μM primer R: 0.5 μl, and LightCycler FastStart DNA Master SYBER Green I (1a+1b): […]/sample. Next, 8 μL of the pre-Mix was pipetted into each well. Then, 2 μL of the sample was added thereto.

[4] = tested on: squamous cell carcinoma cells (HSC2; HSC3 for IC-2); assay: Anti-tumor effect on squamous cell carcinoma cells (TetraColor ONE); type: cell-based; settings: HSC2 (HSC3 also for IC-2); 48 hours
Method: HSC2 cells (a squamous cell carcinoma cell line) were cultured in a DMEM on a 10-cm cell culture dish (TPP Techno Plastic Products AG, Trasadingen, Switzerland) at 5% CO2, 37° C., and a humidity of 100%. The cells at 70-90% confluency were to be split and washed with PBS (−). Next, 300 μL of Trypsin/EDTA was added to 2 mL of PBS (−) and the cells were incubated with this solution at 37° C. for 5 min to detach the cells. Then, 5 mL of DMEM was used to recover the cells. The recovered cells were centrifuged at 1000 rpm for 3 min to remove a supernatant. The pelleted cells were suspended in DMEM and subcultured at 1:4.
First, 2.5×10^3 of HSC2 cells were seeded on each well of a 96-well plate (TPP). After 48 hours from the low-molecular-weight compound treatment, 100 μL of 10% TetraColor ONE (SEIKAGAKU CORPORATION, Tokyo, Japan) was added and the mixture was then incubated at 37° C. After that, absorbance (at a measurement wavelength of 450 nm/a control wavelength of 600 nm) was measured by a 96-well microplate reader (TECAN, Zurich, Switzerland). The same procedure was used to investigate an anti-tumor effect of IC-2 on a squamous cell carcinoma cell line HSC3 after culturing.

Compound: O=C1[C@H](Cc2ccccc2)N2C(=O)CCN(C(=O)NCc3ccccc3)[C@H]2CN1Cc1cccc2ccccc12 [IC-2]
- inhibitory effect on proliferation of the colon cancer cells [1]: exerted an inhibitory effect on proliferation
- inhibition of a Wnt/β-catenin signal in a mesenchymal stem cell (Wnt/β-catenin signal): inhibit a Wnt/β-catenin signal
- formation of spheres, CD44-negative HuH7 cells [2]: inhibited formation of spheres
- formation of spheres, CD44-positive HuH7 cells [2]: inhibited formation of spheres
- level of expression of COL1A1 ([3]; 24 or 48 hours): decreased
- level of expression of α-SMA ([3]; 24 or 48 hours): remarkably reduced
- level of expression of TGFβ ([3]; 24 hours): decreased
- level of expression of TGFβ ([3]; 48 hours): decreased
- inhibitory effects on proliferation of the squamous cell carcinoma cells [4]: exerted inhibitory effects on proliferation
